The source of these data is ChEMBL document CHEMBL3097992, “Comparative molecular field analysis of fenoterol derivatives interacting with an agonist-stabilized form of the β₂-adrenergic receptor” (Bioorg Med Chem, 2014).

Molecules are shown by their SMILES.

The target in assay [1] is T1, Beta-2 adrenergic receptor (Homo sapiens, UniProt P07550). Put plainly: Agonist activity at human beta2 adrenergic receptor expressed in HEK293 cells assessed as stimulation of cAMP accumulation. Format: functional, cell-based. Background: Changes in cAMP serve as a functional read-out for many G protein-coupled receptors.
T1 sequence (P07550 whole entry): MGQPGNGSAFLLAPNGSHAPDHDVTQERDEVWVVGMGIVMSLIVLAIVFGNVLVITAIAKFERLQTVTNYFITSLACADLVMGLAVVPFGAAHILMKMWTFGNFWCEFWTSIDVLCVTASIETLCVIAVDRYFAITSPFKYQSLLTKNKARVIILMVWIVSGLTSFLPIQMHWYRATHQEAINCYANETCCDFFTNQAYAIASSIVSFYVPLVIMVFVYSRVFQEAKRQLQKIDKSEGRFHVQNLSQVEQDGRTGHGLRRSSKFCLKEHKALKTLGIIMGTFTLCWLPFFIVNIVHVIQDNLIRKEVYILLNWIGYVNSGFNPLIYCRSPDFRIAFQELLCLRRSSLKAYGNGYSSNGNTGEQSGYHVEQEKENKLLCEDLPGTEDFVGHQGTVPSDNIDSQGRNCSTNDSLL
In assay [2] the target is T1, Beta-2 adrenergic receptor. Put plainly: Displacement of [3H]-(R,R')-methoxyfenoterol from human beta2 adrenergic receptor expressed in HEK cells by liquid scintillation counting analysis. Format: cell-based, HEK293. (Displacement assays read how much labelled ligand stays bound in the presence of the test substance.)
Assay [3] deals with T1, Beta-2 adrenergic receptor. Put plainly: Displacement of [3H]-CGP-12177 from human beta2 adrenergic receptor expressed in HEK cells by liquid scintillation counting analysis. It counts as cell-based, HEK293.

For the molecule `CC[C@@H](Cc1ccc(OC)cc1)NC[C@H](O)c1cc(O)cc(O)c1`, the EC50 (usually the concentration that produces a half-maximal response) in assay [1] is 1.01 µM. For the same molecule, the Ki (in general, a measure of affinity in units of concentration, obtained from inhibition or displacement) in assay [2] came to 4.3 µM; in assay [3], 20.1 µM.
`CC[C@H](Cc1ccc(O)cc1)NC[C@H](O)c1cc(O)cc(O)c1` registered a Ki in assay [2] of 0.0391 µM. This lies in the double-digit nanomolar range.
Take `COc1ccc(C[C@@H](NC[C@H](O)c2cc(O)cc(O)c2)C(C)C)cc1`: the concentration giving a half-maximal response (EC50) in assay [1] was determined as 6.1 µM. Further, the Ki is 3.42 µM in assay [2] and > 100 µM in assay [3].
Consider `CC[C@H](Cc1ccc(OC)cc1)NC[C@H](O)c1cc(O)cc(O)c1`, for which, in assay [1], the EC50 is 0.00163 µM. The figures for the Ki in assay [2] and in assay [3] were 0.0357 µM and 0.42 µM, respectively.
Regarding `CC[C@@H](Cc1ccc(O)cc1)NC[C@H](O)c1cc(O)cc(O)c1`, the inhibition constant Ki in assay [2] worked out at 0.294 µM.
With `COc1ccc(C[C@H](NC[C@H](O)c2cc(O)cc(O)c2)C(C)C)cc1`, the EC50 in assay [1] amounted to 26.2 µM. Further, the results for the Ki in assay [2] and in assay [3] were 29.2 µM and > 100 µM, respectively.
